Key:
[1] = tested on: VERPE (creeping speedwell); test: Pre-emergence herbicidal activity, cool season; assay type: in vivo, Veronica persicaria; settings: lowest tested rate with 80% or greater inhibition; rates 300, 100, 30, 10 g/ha; about 14 days
In short: (§1)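 GR80 values derive from percent inhibition relative to untreated plants, read roughly 14 days after sowing and pre-emergence soil-surface treatment (compound in 50:50 acetone/water; rates typically 10, 30, 100, 300 g/ha). Warm-season weeds grew at 30/21° C day/night, cool-season ones at 18/13° C; an asterisk marks activity without reaching 80% at the highest rate.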

[2] = tested on: GALAP (catchweed bedstraw); test: Pre-emergence herbicidal activity, cool season; assay type: in vivo, Galium aparine; settings: lowest tested rate with 80% or greater inhibition; rates 300, 100, 30, 10 g/ha; about 14 days
In short: as §1

STEME (common chickweed) = test: Pre-emergence herbicidal activity, cool season; assay type: in vivo, Stellaria media; settings: lowest tested rate with 80% or greater inhibition; rates 300, 100, 30, 10 g/ha; about 14 days
In short: as §1

[3] = tested on: LAMPU (purple deadnettle); test: Pre-emergence herbicidal activity, cool season; assay type: in vivo, Lamium purpureum; settings: lowest tested rate with 80% or greater inhibition; rates 300, 100, 30, 10 g/ha; about 14 days
In short: as §1

SETVI (green foxtail) = test: Pre-emergence herbicidal activity, cool season; assay type: in vivo, Setaria viridis; settings: GR80 = lowest tested rate (300, 100, 30, 10 g/ha) with 80% or greater inhibition; approx. 14 days after treating; 18/13° C.
In short: as §1

SINAR (wild mustard) = test: Pre-emergence herbicidal activity, cool season; assay type: in vivo, Sinapis arvensis; settings: lowest tested rate with 80% or greater inhibition; rates 300, 100, 30, 10 g/ha; about 14 days
In short: as §1

SASKR (russian thistle) = test: Pre-emergence herbicidal activity, cool season; assay type: in vivo, Salsola kali; settings: lowest tested rate with 80% or greater inhibition; rates 300, 100, 30, 10 g/ha; about 14 days
In short: as §1

POLCO (wild buckwheat) = test: Pre-emergence herbicidal activity, cool season; assay type: in vivo, Polygonum convolvulus; settings: lowest tested rate with 80% or greater inhibition; rates 300, 100, 30, 10 g/ha; about 14 days
In short: (§2)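 GR80 values, pre-emergence, soil applied at 300, 100, 30, 10 g/ha. Warm regime 30/21 °C: PANMI, DIGSA. Cool regime 18/13 °C: ALOMY, POLCO. Rating ~14 d, % inhibition vs untreated.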

BROTE (downy brome) = test: Pre-emergence herbicidal activity, cool season; assay type: in vivo, Bromus tectorum; settings: GR80 = lowest tested rate (300, 100, 30, 10 g/ha) with 80% or greater inhibition; approx. 14 days after treating; 18/13° C.
Protocol: (§3) Tables 5 to 8 summarize results of tests conducted as described below to determine the pre-emergence herbicidal activity, in the form of a GR80 value, of illustrative compounds of this invention. […] Compounds of the invention were typically applied at rates of 300, 100, 30, and 10 g/ha. Where herbicidal activity was evident but 80% inhibition was not achieved at the highest rate tested, an asterisk (*) is shown in the following tables.
(§4) The pre-emergence tests were conducted by the following procedure. Topsoil was sieved to pass through a 1.27 cm screen. Fertilizer was added to the topsoil and the mixture was then sterilized by heating. The topsoil mixture was placed in a pot and compacted to a depth of 1.0 to 1.25 cm from the top of the pot. Seeds of each of several monocotyledonous and dicotyledonous annual plant species were placed on top of the soil. Additional soil was subsequently placed over the seeds to level-fill the pot. A known amount of each test compound dissolved or suspended in an appropriate organic solvent was diluted with a 50:50 mix of acetone and water and applied to the surface of the soil. After treatment the plants were placed in a greenhouse where they received 0.64 cm of overhead irrigation. All subsequent watering consisted of a light overhead mist and/or subirrigation as needed for germination and growth. Tables 5 and 6 below relate to warm season plant species which were placed after pre-emergence treatment in a greenhouse with a 30/21° C. day/night temperature regime. Tables 7 and 8 below relates to cool season plant species placed after pre-emergence treatment in a greenhouse or growth chamber with an 18/13° C. day/night temperature regime.
(§5) Approximately 14 days after planting and treating, the plants were observed and herbicidal efficacy recorded as percent inhibition by comparison with untreated plants.
(§6) The plant species usually regarded as weeds which were utilized in the tests are identified in the tables below according to the following legend, in which “d” indicates a dicotyledonous species and “m” a monocotyledonous species. All monocotyledonous species included in the tests herein are grasses.

POROL (common purslane) = test: Pre-emergence herbicidal activity, warm season; assay type: in vivo, Portulaca oleracea; settings: GR80 = lowest tested rate (300, 100, 30, 10 g/ha) with 80% or greater inhibition; approx. 14 days after treating; 30/21° C.
In short: as §1

SETFA (giant foxtail) = test: Pre-emergence herbicidal activity, warm season; assay type: in vivo, Setaria faberi; settings: GR80 = lowest tested rate (300, 100, 30, 10 g/ha) with 80% or greater inhibition; approx. 14 days after treating; 30/21° C.
In short: as §1

PANDI (fall panicum) = test: Pre-emergence herbicidal activity, warm season; assay type: in vivo, Panicum dichotomiflorum; settings: GR80 = lowest tested rate (300, 100, 30, 10 g/ha) with 80% or greater inhibition; approx. 14 days after treating; 30/21° C.
Protocol: as §3, §4, §5, §6

[4] = tested on: PANMI (wild proso millet); test: Pre-emergence herbicidal activity, warm season; assay type: in vivo, Panicum miliaceum; settings: GR80 = lowest tested rate (300, 100, 30, 10 g/ha) with 80% or greater inhibition; approx. 14 days after treating; 30/21° C.
In short: as §2

[5] = tested on: CIRAR (canada thistle (seedling)); test: Pre-emergence herbicidal activity, warm season; assay type: in vivo, Cirsium arvense; settings: GR80 = lowest tested rate (300, 100, 30, 10 g/ha) with 80% or greater inhibition; approx. 14 days after treating; 30/21° C.
In short: as §1

[6] = tested on: AGSST (creeping bentgrass); test: Pre-emergence herbicidal activity, cool season; assay type: in vivo, Agrostis stolonifera; settings: GR80 = lowest tested rate (300, 100, 30, 10 g/ha) with 80% or greater inhibition; approx. 14 days after treating; 18/13° C.
In short: as §1

ALOMY (blackgrass) = test: Pre-emergence herbicidal activity, cool season; assay type: in vivo, Alopecurus myosuroides; settings: GR80 = lowest tested rate (300, 100, 30, 10 g/ha) with 80% or greater inhibition; approx. 14 days after treating; 18/13° C.
In short: as §2

[7] = tested on: BRAPP (broadleaf signalgrass); test: Pre-emergence herbicidal activity, warm season; assay type: in vivo, Brachiaria platyphylla; settings: GR80 = lowest tested rate (300, 100, 30, 10 g/ha) with 80% or greater inhibition; approx. 14 days after treating; 30/21° C.
In short: as §1

LOLMG (annual ryegrass) = test: Pre-emergence herbicidal activity, cool season; assay type: in vivo, Lolium multiflorum; settings: GR80 = lowest tested rate (300, 100, 30, 10 g/ha) with 80% or greater inhibition; approx. 14 days after treating; 18/13° C.
Protocol: as §3, §4, §5, §6

SORVU (shattercane) = test: Pre-emergence herbicidal activity, warm season; assay type: in vivo, Sorghum vulgare; settings: GR80 = lowest tested rate (300, 100, 30, 10 g/ha) with 80% or greater inhibition; approx. 14 days after treating; 30/21° C.
Protocol: as §3, §4, §5, §6

ECHCG (barnyardgrass) = test: Pre-emergence herbicidal activity, warm season; assay type: in vivo, Echinochloa crus-galli; settings: GR80 = lowest tested rate (300, 100, 30, 10 g/ha) with 80% or greater inhibition; approx. 14 days after treating; 30/21° C.
In short: as §1

[8] = tested on: SORHA (johnsongrass (seedling)); test: Pre-emergence herbicidal activity, warm season; assay type: in vivo, Sorghum halepense; settings: GR80 = lowest tested rate (300, 100, 30, 10 g/ha) with 80% or greater inhibition; approx. 14 days after treating; 30/21° C.
In short: as §1

[9] = tested on: CHEAL (common lambsquarters); test: Pre-emergence herbicidal activity, warm season; assay type: in vivo, Chenopodium album; settings: GR80 = lowest tested rate (300, 100, 30, 10 g/ha) with 80% or greater inhibition; approx. 14 days after treating; 30/21° C.
In short: as §1

DIGSA (large crabgrass) = test: Pre-emergence herbicidal activity, warm season; assay type: in vivo, Digitaria sanguinalis; settings: GR80 = lowest tested rate (300, 100, 30, 10 g/ha) with 80% or greater inhibition; approx. 14 days after treating; 30/21° C.
In short: as §2

AMARE (redroot pigweed) = test: Pre-emergence herbicidal activity, warm season; assay type: in vivo, Amaranthus retroflexus; settings: GR80 = lowest tested rate (300, 100, 30, 10 g/ha) with 80% or greater inhibition; approx. 14 days after treating; 30/21° C.
In short: as §1

SMILES	Pre-emergence activity GR80, VERPE [1]	Pre-emergence activity GR80, GALAP [2]	Pre-emergence activity GR80, STEME (STEME (common chickweed))	Pre-emergence activity GR80, LAMPU [3]	Pre-emergence activity (GR80) SETVI (SETVI (green foxtail))	Pre-emergence activity GR80, SINAR (SINAR (wild mustard))	Pre-emergence activity GR80, SASKR (SASKR (russian thistle))	Pre-emergence activity GR80, POLCO (POLCO (wild buckwheat))	Pre-emergence activity (GR80) BROTE (BROTE (downy brome))	Pre-emergence activity (GR80) PANMI [4]	Pre-emergence activity (GR80) AGSST [6]	Pre-emergence activity (GR80) ALOMY (ALOMY (blackgrass))	Pre-emergence activity (GR80) LOLMG (LOLMG (annual ryegrass))	also measured
CON(C)C(=O)n1cnc(S(=O)(=O)C(F)F)n1 [Example 34]	300 g/ha	[empty]	[empty]	300 g/ha	300 g/ha	300 g/ha	300 g/ha	300 g/ha	300 g/ha	–	–	–	–	–
CN(C(=O)n1cnc(S(=O)(=O)C(F)(F)Br)n1)C1CCCCC1 [Example 43]	300 g/ha	300 g/ha	300 g/ha	300 g/ha	300 g/ha	[empty]	[empty]	[empty]	–	100 g/ha	100 g/ha	300 g/ha	–	Pre-emergence activity (GR80) POROL (POROL (common purslane)): 300 g/ha; Pre-emergence activity (GR80) SETFA (SETFA (giant foxtail)): 100 g/ha; Pre-emergence activity (GR80) PANDI (PANDI (fall panicum)): 100 g/ha; Pre-emergence activity (GR80) CIRAR [5]: 300 g/ha; Pre-emergence activity (GR80) BRAPP [7]: 300 g/ha
CON(C)C(=O)n1cnc(S(=O)(=O)C(F)(F)C(F)F)n1 [Example 69]	100 g/ha	100 g/ha	300 g/ha	[empty]	100 g/ha	30 g/ha	[empty]	100 g/ha	300 g/ha	–	–	300 g/ha	300 g/ha	–
CCCN(CC)C(=O)n1cnc(S(=O)(=O)C(F)(F)C(F)(F)Br)n1 [Example 75]	10 g/ha	300 g/ha	30 g/ha	30 g/ha	30 g/ha	30 g/ha	10 g/ha	[empty]	300 g/ha	100 g/ha	30 g/ha	–	300 g/ha	Pre-emergence activity (GR80) SORVU (SORVU (shattercane)): 300 g/ha; Pre-emergence activity (GR80) ECHCG (ECHCG (barnyardgrass)): 100 g/ha; Pre-emergence activity (GR80) POROL (POROL (common purslane)): 300 g/ha; Pre-emergence activity (GR80) SORHA [8]: 300 g/ha; Pre-emergence activity (GR80) CHEAL [9]: 300 g/ha; Pre-emergence activity (GR80) SETFA (SETFA (giant foxtail)): 300 g/ha; Pre-emergence activity (GR80) DIGSA (DIGSA (large crabgrass)): 300 g/ha; Pre-emergence activity (GR80) BRAPP [7]: 300 g/ha
CON(C)C(=O)n1cnc(S(=O)(=O)C(F)(F)C(F)(F)Br)n1 [Example 81]	100 g/ha	[empty]	30 g/ha	100 g/ha	–	30 g/ha	100 g/ha	[empty]	30 g/ha	–	100 g/ha	–	–	–
CN(C)C(=O)n1cnc(S(=O)(=O)C(F)(F)Cl)n1 [Example 85]	100 g/ha	[empty]	30 g/ha	100 g/ha	300 g/ha	30 g/ha	100 g/ha	[empty]	100 g/ha	–	100 g/ha	–	100 g/ha	–
COCCN(C)C(=O)n1cnc(S(=O)(=O)C(F)(F)Cl)n1 [Example 88]	30 g/ha	100 g/ha	10 g/ha	10 g/ha	100 g/ha	30 g/ha	30 g/ha	300 g/ha	300 g/ha	300 g/ha	100 g/ha	300 g/ha	300 g/ha	Pre-emergence activity (GR80) AMARE (AMARE (redroot pigweed)): 100 g/ha; Pre-emergence activity (GR80) DIGSA (DIGSA (large crabgrass)): 300 g/ha

From patent publication US6461997B1, “Triazole sulfones having herbicidal activity” (Monsanto Technology LLC, priority 1999, dated 2002)
